Data reported in patent publication US20240034722A1, “PRETARGETING IMAGING AGENTS” (Eli Lilly and Company, priority 2020, published 2024).
“And” between values parts separate entries of the source, which are not always exact repeats. Equal values may be shown once. “Also recorded” adds a separate entry of the source. Values belong to the compound of their own block, whether it stands above or below them.

Legend:
[1] = Dynamic micro PET-CT imaging, tracer uptake in brain, muscle and bone; assay type: in vivo, CD-1 mice; conditions: for Bone uptake throughout the scan period (defluorination) / Uptake throughout the periphery of the body (liver, kidneys, heart) / Brain uptake after steady clearance of tracer / Crossing of the blood-brain-barrier / Peak brain uptake / Time of peak brain uptake post injection / Clearance from the brain: CD-1 male mice; for Bone uptake throughout the scan period (defluorination): 60-min scan; for Uptake throughout the periphery of the body (liver, kidneys, heart): PET; for Brain uptake after steady clearance of tracer: at 59.5 min post injection; for Crossing of the blood-brain-barrier / Peak brain uptake / Time of peak brain uptake post injection: dynamic PET; for Peak brain uptake / Time of peak brain uptake post injection: i.v.; for Bone Mean % ID/g / Brain Mean % ID/g / Muscle Mean % ID/g: male CD-1 mice, iv; for Clearance from the brain: by 60 minutes post injection, relative to muscle
Method: (§1) A Siemens Inveon® Multimodality Scanner (Siemens, Germany) is used for micro PET-CT imaging. Male CD-1 (6-week-old, ˜30 g) mice are anesthetized with 3% isoflurane/97% oxygen and placed on the bed of the scanner. The mice are administered [^18F]N-(4-(1,2,4,5-tetrazin-3-yl)benzyl)-2-fluoronicotinamide via a bolus intravenous tail vein injection (˜350 ρCi in a total volume of 150 μL saline). A total of four dynamic PET scans are conducted, followed by a short high-resolution CT scan for anatomical registration. PET images are generated for each minute of the acquisition time. Uptake of the tracer in the brain, muscle, and bone are determined by visually drawing regions of interest (ROIs) based on the fused PET/CT images and the corresponding activity values are determined using the Inveon® Research Workplace software. All values are represented as % injected dose per gram (% ID/g).
as §1, with “g) mice were anesthetized with” for “g) mice are anesthetized with”, “are administered [^18F]N-(4-(1,2,4,5-tetrazin-3-yl)benzyl)-6-fluoropicolinamide via a” for “are administered [^18F]N-(4-(1,2,4,5-tetrazin-3-yl)benzyl)-2-fluoronicotinamide via a”, “vein injection (˜300 ρCi in” for “vein injection (˜350 ρCi in”
as §1, with “PET/CT” for “PET-CT”, “30-40” for “˜30”, “[^18F]N-(4-(1,2,4,5-tetrazin-3-yl)benzyl)-6-fluoronicotinamide” for “[^18F]N-(4-(1,2,4,5-tetrazin-3-yl)benzyl)-2-fluoronicotinamide”, “(˜300” for “(˜350”, “two” for “four”

[2] = Stability of the tetrazine moiety in ascorbate formulation; assay type: physicochemical
[3] = listed as [^18F]N-(4-(1,2,4,5-tetrazin-3-yl)benzyl)-2-fluoronicotinamide
[4] = listed as [^18F]N-(4-(1,2,4,5-tetrazin-3-yl)benzyl)-6-fluoropicolinamide

Bone uptake throughout the scan period (defluorination) [1]: remained low | Uptake throughout the periphery of the body (liver, kidneys, heart) [1]: readily observed | Brain uptake after steady clearance of tracer [1]: 1.1 % ID/g | Crossing of the blood-brain-barrier [1]: crosses the blood-brain-barrier | Peak brain uptake [1]: 2.6 % ID/g | Time of peak brain uptake post injection [1]: 2.5 min | Bone Mean % ID/g ([1]; Time 0.5 min): 0.00 % ID/g | Brain Mean % ID/g ([1]; Time 0.5 min): 0.00 % ID/g | Muscle Mean % ID/g ([1]; Time 0.5 min): 0.00 % ID/g | Bone Mean % ID/g ([1]; Time 1.5 min): 0.09 % ID/g | Brain Mean % ID/g ([1]; Time 1.5 min): 0.52 % ID/g | Muscle Mean % ID/g ([1]; Time 1.5 min): 0.07 % ID/g | Bone Mean % ID/g ([1]; Time 2.5 min): 0.83 % ID/g | Brain Mean % ID/g ([1]; Time 2.5 min): 2.57 % ID/g | Muscle Mean % ID/g ([1]; Time 2.5 min): 0.56 % ID/g | Bone Mean % ID/g ([1]; Time 3.5 min): 0.95 % ID/g | Brain Mean % ID/g ([1]; Time 3.5 min): 2.45 % ID/g | Muscle Mean % ID/g ([1]; Time 3.5 min): 0.67 % ID/g | Bone Mean % ID/g ([1]; Time 4.5 min): 0.85 % ID/g | Brain Mean % ID/g ([1]; Time 4.5 min): 2.29 % ID/g | Muscle Mean % ID/g ([1]; Time 4.5 min): 0.73 % ID/g | Bone Mean % ID/g ([1]; Time 5.5 min): 0.86 % ID/g | Brain Mean % ID/g ([1]; Time 5.5 min): 2.20 % ID/g | Muscle Mean % ID/g ([1]; Time 5.5 min): 0.72 % ID/g | Bone Mean % ID/g ([1]; Time 6.5 min): 0.90 % ID/g | Brain Mean % ID/g ([1]; Time 6.5 min): 2.23 % ID/g | Muscle Mean % ID/g ([1]; Time 6.5 min): 0.80 % ID/g | Bone Mean % ID/g ([1]; Time 7.5 min): 0.90 % ID/g | Brain Mean % ID/g ([1]; Time 7.5 min): 2.15 % ID/g | Muscle Mean % ID/g ([1]; Time 7.5 min): 0.84 % ID/g | Bone Mean % ID/g ([1]; Time 8.5 min): 0.90 % ID/g | Brain Mean % ID/g ([1]; Time 8.5 min): 2.10 % ID/g | Muscle Mean % ID/g ([1]; Time 8.5 min): 0.84 % ID/g | Bone Mean % ID/g ([1]; Time 9.5 min): 0.81 % ID/g | Brain Mean % ID/g ([1]; Time 9.5 min): 2.00 % ID/g | Muscle Mean % ID/g ([1]; Time 9.5 min): 0.78 % ID/g | Bone Mean % ID/g ([1]; Time 10.5 min): 0.90 % ID/g | Brain Mean % ID/g ([1]; Time 10.5 min): 1.95 % ID/g | Muscle Mean % ID/g ([1]; Time 10.5 min): 0.79 % ID/g | Bone Mean % ID/g ([1]; Time 11.5 min): 0.92 % ID/g | Brain Mean % ID/g ([1]; Time 11.5 min): 1.89 % ID/g | Muscle Mean % ID/g ([1]; Time 11.5 min): 0.84 % ID/g | Bone Mean % ID/g ([1]; Time 12.5 min): 0.94 % ID/g | Brain Mean % ID/g ([1]; Time 12.5 min): 1.86 % ID/g | Muscle Mean % ID/g ([1]; Time 12.5 min): 0.84 % ID/g | Bone Mean % ID/g ([1]; Time 13.5 min): 0.97 % ID/g | Brain Mean % ID/g ([1]; Time 13.5 min): 1.83 % ID/g | Muscle Mean % ID/g ([1]; Time 13.5 min): 0.88 % ID/g | Bone Mean % ID/g ([1]; Time 14.5 min): 0.98 % ID/g | Brain Mean % ID/g ([1]; Time 14.5 min): 1.78 % ID/g | Muscle Mean % ID/g ([1]; Time 14.5 min): 0.88 % ID/g | Bone Mean % ID/g ([1]; Time 15.5 min): 0.98 % ID/g | Brain Mean % ID/g ([1]; Time 15.5 min): 1.76 % ID/g | Muscle Mean % ID/g ([1]; Time 15.5 min): 0.89 % ID/g | Bone Mean % ID/g ([1]; Time 16.5 min): 0.83 % ID/g | Brain Mean % ID/g ([1]; Time 16.5 min): 1.72 % ID/g | Muscle Mean % ID/g ([1]; Time 16.5 min): 0.93 % ID/g | Bone Mean % ID/g ([1]; Time 17.5 min): 1.00 % ID/g | Brain Mean % ID/g ([1]; Time 17.5 min): 1.69 % ID/g | Muscle Mean % ID/g ([1]; Time 17.5 min): 0.91 % ID/g | Bone Mean % ID/g ([1]; Time 18.5 min): 0.97 % ID/g | Brain Mean % ID/g ([1]; Time 18.5 min): 1.65 % ID/g | Muscle Mean % ID/g ([1]; Time 18.5 min): 0.89 % ID/g | Bone Mean % ID/g ([1]; Time 19.5 min): 0.93 % ID/g | Brain Mean % ID/g ([1]; Time 19.5 min): 1.63 % ID/g | Muscle Mean % ID/g ([1]; Time 19.5 min): 0.90 % ID/g | Bone Mean % ID/g ([1]; Time 20.5 min): 1.01 % ID/g | Brain Mean % ID/g ([1]; Time 20.5 min): 1.61 % ID/g | Muscle Mean % ID/g ([1]; Time 20.5 min): 0.95 % ID/g | Bone Mean % ID/g ([1]; Time 21.5 min): 0.91 % ID/g | Brain Mean % ID/g ([1]; Time 21.5 min): 1.58 % ID/g | Muscle Mean % ID/g ([1]; Time 21.5 min): 0.98 % ID/g | Bone Mean % ID/g ([1]; Time 22.5 min): 1.02 % ID/g | Brain Mean % ID/g ([1]; Time 22.5 min): 1.56 % ID/g | Muscle Mean % ID/g ([1]; Time 22.5 min): 0.95 % ID/g | Bone Mean % ID/g ([1]; Time 23.5 min): 1.04 % ID/g | Brain Mean % ID/g ([1]; Time 23.5 min): 1.55 % ID/g | Muscle Mean % ID/g ([1]; Time 23.5 min): 1.00 % ID/g | Bone Mean % ID/g ([1]; Time 24.5 min): 1.11 % ID/g | Brain Mean % ID/g ([1]; Time 24.5 min): 1.51 % ID/g | Muscle Mean % ID/g ([1]; Time 24.5 min): 0.98 % ID/g | Bone Mean % ID/g ([1]; Time 25.5 min): 0.93 % ID/g | Brain Mean % ID/g ([1]; Time 25.5 min): 1.49 % ID/g | Muscle Mean % ID/g ([1]; Time 25.5 min): 0.99 % ID/g | Bone Mean % ID/g ([1]; Time 26.5 min): 0.86 % ID/g | Brain Mean % ID/g ([1]; Time 26.5 min): 1.46 % ID/g | Muscle Mean % ID/g ([1]; Time 26.5 min): 0.95 % ID/g | Bone Mean % ID/g ([1]; Time 27.5 min): 0.94 % ID/g | Brain Mean % ID/g ([1]; Time 27.5 min): 1.45 % ID/g | Muscle Mean % ID/g ([1]; Time 27.5 min): 0.94 % ID/g | Bone Mean % ID/g ([1]; Time 28.5 min): 1.00 % ID/g | Brain Mean % ID/g ([1]; Time 28.5 min): 1.42 % ID/g | Muscle Mean % ID/g ([1]; Time 28.5 min): 1.00 % ID/g | Bone Mean % ID/g ([1]; Time 29.5 min): 1.05 % ID/g | Brain Mean % ID/g ([1]; Time 29.5 min): 1.40 % ID/g | Muscle Mean % ID/g ([1]; Time 29.5 min): 0.97 % ID/g | Bone Mean % ID/g ([1]; Time 30.5 min): 0.95 % ID/g | Brain Mean % ID/g ([1]; Time 30.5 min): 1.38 % ID/g | Muscle Mean % ID/g ([1]; Time 30.5 min): 0.99 % ID/g | Bone Mean % ID/g ([1]; Time 31.5 min): 1.04 % ID/g | Brain Mean % ID/g ([1]; Time 31.5 min): 1.38 % ID/g | Muscle Mean % ID/g ([1]; Time 31.5 min): 0.95 % ID/g | Bone Mean % ID/g ([1]; Time 32.5 min): 1.04 % ID/g | Brain Mean % ID/g ([1]; Time 32.5 min): 1.36 % ID/g | Muscle Mean % ID/g ([1]; Time 32.5 min): 0.97 % ID/g
SMILES: O=C(NCc1ccc(-c2nncnn2)cc1)c1ccc([18F])nc1 [Comparative Example 6, [^18]FN-(4-(1,2,4,5-tetrazin-3-yl)benzyl)-6-fluoronicotinamide]

Reduction of the tetrazine moiety by ascorbate formulation [2]: readily reduced
SMILES: O=C(NCc1ccc(-c2nncnn2)cc1)c1cccnc1F [Example 1, N-(4-(1,2,4,5-tetrazin-3-yl)benzyl)-2-fluoronicotinamide]

Bone uptake throughout the scan period (defluorination) [1]: remained low | Uptake throughout the periphery of the body (liver, kidneys, heart) [1]: observed | Brain uptake after steady clearance of tracer [1]: 1.2 % ID/g | Clearance from the brain [1, 3]: near background levels (muscle) | Crossing of the blood-brain-barrier [1]: readily cross the blood-brain-barrier | Peak brain uptake [1]: 3.3±0.4 % ID/g | Time of peak brain uptake post injection [1]: approximately 2 min | Peak brain uptake [1, 3]: 3.3±0.4 % ID/g and 3.3 % ID/g | Time of peak brain uptake post injection [1, 3]: 4.5 min | Reduction of the tetrazine moiety by ascorbate formulation [2]: readily reduced
SMILES: O=C(NCc1ccc(-c2nncnn2)cc1)c1cccnc1[18F] [Example 2, [^18F]N-(4-(1,2,4,5-tetrazin-3-yl)benzyl)-2-fluoronicotinamide]
Clearance from the brain [1]: baseline levels defined by uptake in the muscle | Crossing of the blood-brain-barrier [1, 3]: readily cross the blood-brain-barrier; also recorded: readily crosses the blood-brain-barrier

Reduction of the tetrazine moiety by ascorbate formulation [2]: readily reduced
SMILES: O=C(NCc1ccc(-c2nncnn2)cc1)c1cccc(F)n1 [Example 3, N-(4-(1,2,4,5-tetrazin-3-yl)benzyl)-6-fluoropicolinamide]

Bone uptake throughout the scan period (defluorination) [1]: remained low | Uptake throughout the periphery of the body (liver, kidneys, heart) [1]: observed | Brain uptake after steady clearance of tracer [1]: 1.1 % ID/g | Clearance from the brain [1, 4]: near background levels (muscle) | Crossing of the blood-brain-barrier [1]: readily cross the blood-brain-barrier | Peak brain uptake [1]: 4.3±0.3 % ID/g | Time of peak brain uptake post injection [1]: approximately 2 min | Peak brain uptake [1, 4]: 4.3±0.3 % ID/g and 4.3 % ID/g | Time of peak brain uptake post injection [1, 4]: 2.5 min
SMILES: O=C(NCc1ccc(-c2nncnn2)cc1)c1cccc([18F])n1 [Example 4, [^18F]N-(4-(1,2,4,5-tetrazin-3-yl)benzyl)-6-fluoropicolinamide]
Clearance from the brain [1]: baseline levels defined by uptake in the muscle | Crossing of the blood-brain-barrier [1, 4]: readily cross the blood-brain-barrier; also recorded: readily crosses the blood-brain-barrier
